Source: patent US11013235B2 (priority 2015, dated 2021)
Read-outs that look alike come from different tables or passages of the source.

Legend:
Type in all cases: in vivo
Botrytis cinerea [1] = assay: Control of Botrytis cinerea disease in Arabidopsis (Bc-At); settings: 1 μM spraying every 24 hours for one week, water control 8.7
How it was run: (§1)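 Inoculated plants received a daily 1 μM compound spray for seven days. Outcomes were plant mortality for Nocardia, leaves with symptoms (%) for Alternaria, and measured lesion diameter for Botrytis, relative to water-treated plants.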

Phytophthora parasitica = assay: Control of Phytophthora parasitica disease in tobacco (Pp-Nt); settings: 1 μM spraying every 24 hours for one week, water control 91
Pratylenchus coffeae = assay: Nematode control, nodules per plant: Pratylenchus coffeae; settings: 1 μM foliar application every 5 days, evaluation 35 days after, control 42
How it was run: (§2)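 Each compound was dissolved in ethanol, then diluted with water to 1 μM. Only the leaves were sprayed, with applications repeated every 5 days on ten plants per treatment. After 35 days, nodules per plant were quantified.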

Botrytis cinerea [2] = assay: Control of Botrytis cinerea disease in tobacco (Bc-Nt); settings: 1 μM spraying every 24 hours for one week, water control 6.7
How it was run: as §1

Rhizoctonia solani [3] = assay: Control of Rhizoctonia solani disease in tobacco (Rs-Nt); settings: 1 μM spraying every 24 hours for one week, water control 87
Radopholus similis = assay: Nematode control, nodules per plant: Radopholus similis; settings: 1 μM foliar application every 5 days, evaluation 35 days after, control 45
How it was run: as §2

Botrytis cinerea [4] = assay: Control of Botrytis cinerea disease in tomato (Bc-SI); settings: 1 μM spraying every 24 hours for one week, water control 7.4
How it was run: as §1

Nocardia sp = assay: Control of Nocardia sp disease in tobacco (N-Nt); settings: 1 μM spraying every 24 hours for one week, water control 58
How it was run: as §1

Alternaria solani = assay: Control of Alternaria solani disease in tomato (As-SI); settings: 1 μM spraying every 24 hours for one week, water control 68
How it was run: as §1

Meloidogyne incognita = assay: Nematode control, nodules per plant: Meloidogyne incognita; settings: 1 μM foliar application every 5 days, evaluation 35 days after, control 34
How it was run: as §2

Rhizoctonia solani [5] = assay: Control of Rhizoctonia solani disease in tomato (Rs-SI); settings: 1 μM spraying every 24 hours for one week, water control 96
[6] = test system: Candidatus 'Liberibacter asiaticus'; settings: spraying every 15 days, 12 months after treatment, Citrus sinensis with HLB

Row | Structure (SMILES) | Bc-At: mean of the diameter of the lesion (Botrytis cinerea [1]) [mm] | Pp-Nt: percentage of mortality (Phytophthora parasitica) [%] | Pc: number of nodules per plant (Pratylenchus coffeae) | Bc-Nt: mean of the diameter of the lesion (Botrytis cinerea [2]) [mm] | Rs-Nt: percentage of mortality (Rhizoctonia solani [3]) [%] | Rs: number of nodules per plant (Radopholus similis) | Bc-SI: mean of the diameter of the lesion (Botrytis cinerea [4]) [mm] | N-Nt: percentage of mortality (Nocardia sp) [%] | As-SI: percentage of leaves with the disease symptoms (Alternaria solani) [%] | Mi: number of nodules per plant (Meloidogyne incognita) | Rs-SI: percentage of mortality (Rhizoctonia solani [5]) [%] | Titers of the bacterium ([6]; 0.001 μM) [copies per reaction] | Titers of the bacterium ([6]; 0.01 μM) [copies per reaction] | Titers of the bacterium ([6]; 1 μM) [copies per reaction] | Titers of the bacterium ([6]; 5 μM) [copies per reaction] | Titers of the bacterium ([6]; 10 μM) [copies per reaction]
1 | Cc1c(CCC(=O)NCC(O)CO)c(=O)oc2cc3occ(-n4cccc4)c3cc12 (stereo not drawn) [IN, N-(2,3-dihydroxypropyl)-3-[4-methyl-2-oxo-6-(1H-pyrrol-1-yl)-2H-furo[3,2-g]chromen-3-yl]propanamide] | 1.1 | 3 | 0 | 2.0 | 0 | 3 | 1.6 | 0 | 7 | 0 | 1 | 524 | 0 | 0 | 54 | 2368
2 | CC1CCN(C(=O)c2ccc(OC3CCN(CC(O)CO)CC3)cc2)C1 (stereo not drawn) [IVA, 3-(4-{4-[(3-methylpyrrolidin-1-yl)carbonyl]phenoxy}piperidin-1-yl)propane-1,2-diol] | 2.4 | 0 | 0 | 1.5 | 0 | 0 | 0.8 | 0 | 5 | 0 | 1 | 598 | 1 | 5 | 98 | 6521
3 | CC1CCN(C(=O)c2ccc(OC3CCN(CC(O)C(C)O)CC3)cc2)C1 (stereo not drawn) [IVB, 1-(4-{4-[(3-methylpyrrolidin-1-yl)carbonyl]phenoxy}piperidin-1-yl)butane-2,3-diol] | 0.7 | 3 | 0 | 0.9 | 0 | 3 | 1.2 | 0 | 7 | 0 | 1 | 432 | 8 | 4 | 43 | 3574
4 | O=C(c1ccc(OC2CCN(CC(O)CO)CC2)cc1)N1CCC(c2ccccc2)C1 (stereo not drawn) [IVC, 3-(4-{4-[(3-phenylpyrrolidin-1-yl)carbonyl]phenoxy}piperidin-1-yl)propane-1,2-diol] | 1.2 | 1 | 13 | 0.3 | 2 | 14 | 0.8 | 1 | 1 | 2 | 3 | 123 | 4 | 0 | 23 | 3541
5 | CC(O)C(O)CN1CCC(Oc2ccc(C(=O)N3CCC(c4ccccc4)C3)cc2)CC1 (stereo not drawn) [IVD, 1-(4-{4-[(3-phenylpyrrolidin-1-yl)carbonyl]phenoxy}piperidin-1-yl)butane-2,3-diol] | 1.1 | 2 | 15 | 2.0 | 3 | 2 | 1.6 | 1 | 2 | 3 | 2 | 587 | 0 | 0 | 87 | 2368
6 | O=C(c1ccc(OC2CCN(CC(O)CO)CC2)cc1)N1CCC(C2CCCCC2)C1 (stereo not drawn) [IVE] | 0.5 | 1 | 2 | 0.9 | 4 | 14 | 0.8 | 2 | 3 | 4 | 2 | 985 | 0 | 0 | 98 | 9845
7 | CC(O)C(O)CN1CCC(Oc2ccc(C(=O)N3CCC(C4CCCCC4)C3)cc2)CC1 (stereo not drawn) [IVF, 1-(4-{4-[(3-cyclohexylpyrrolidin-1-yl)carbonyl]phenoxy}piperidin-1-yl)butane-2,3-diol] | 1.5 | 0 | 17 | 1.5 | 0 | 0 | 2.5 | 1 | 8 | 0 | 2 | 657 | 0 | 0 | 67 | 8654
8 | O=C(c1ccc(OC2CCN(CC(O)CO)CC2)cc1)N1CCC(C2CCCC2)C1 (stereo not drawn) [IVG, 3-(4-{4-[(3-cyclopentylpyrrolidin-1-yl)carbonyl]phenoxy}piperidin-1-yl)propane-1,2-diol] | 2.4 | 0 | 0 | 1.5 | 0 | 0 | 0.8 | 0 | 7 | 0 | 0 | 658 | 0 | 0 | 68 | 4562
9 | CC(O)C(O)CN1CCC(Oc2ccc(C(=O)N3CCC(C4CCCC4)C3)cc2)CC1 (stereo not drawn) [IVH, 1-(4-{4-[(3-cyclopentylpyrrolidin-1-yl)carbonyl]phenoxy}piperidin-1-yl)butane-2,3-diol] | 0.7 | 0 | 0 | 0.9 | 0 | 0 | 1.2 | 0 | 5 | 0 | 1 | 756 | 0 | 0 | 76 | 1351
